Converted amounts (≈) assume the structure as drawn.
Columns and labels:
[1] = tested on: NIH/3T3 cells (mouse embryonic fibroblast cell line); assay: MTT test using NIH/3T3 cells; type: cell-based; settings: incubation 50 hours at 37° C.
Method: Following procedure by MTT assay of DESCRIPTION OF EMBODIMENTS (4), after incubation of NIH/3T3 cells (mouse embryonic fibroblast cell line) for 50 hours at 37° C., cell viability was examined.
This test is a quantitative colorimetric method to determine cell proliferation. It utilizes the yellow tetrazolium salt [3-(4,5-Dimethylthiazol-2-yl)-2,5-diphenyltetrazolium-bromide] which is metabolized by mitochondrial succinic dehydrogenase activity of proliferating cells to yield a purple formazan reaction product.
The formazan is then solubilized by isopropyl alcohol, and the concentration determined by optical density at 570 nm and cell survival was calculated using the following formula: Cell survival (%)=((As−Ab)/(Ac−Ab))×100
Where, As=absorbance of the sample, Ac=absorbance of the control well […] and Ab=absorbance of the blank well.
1. Plate cells into 96-well tissue culture plates. Cells should be seeded at densities of 10,000 cells per well since they will reach optimal population densities within 24 to 48 hours.
2. Carry out the experiment by adding DDMC/PTX or PTX into appropriate well. The final volume of tissue culture medium in each well is 0.1 mL, and the medium may contain up to 10% Fetal Bovine Serum.
3. Use one vial of MTT solution for each 96-well plate assay.
4. Add 10 μL MTT solution to each well. […]
7. Read absorbance at 570 nm cell survival (%)=((As−Ab)/(Ac−Ab))×100

B16F10 melanoma cells = assay: Anti-tumor effects and survival in B16F10 tumor-bearing C57BL/6 mice; type: in vivo, mouse
Method: In vivo analysis for melanoma cells is investigated by C57BL/6 female mouse. Anti-tumor effects and survival rates were investigated in tumor-bearing mice.
To evaluate the anti-tumor effects of DMMC/PTX complex, tumor-bearing mice were prepared by inoculating B16F10 melanoma cells S.C onto the back of C57BL/6 female mouse (2.0×10^6 cells/mouse). At average 1885 mm^3 of tumor volume, 12 days after inoculation, paclitaxel (PTX), DMMC/PTX4 (particle size 50 nm), DMMC/PTX5 (particle size 290 nm), and […] were administrated by I.P. injection three times (at a dose of 10 mg PXL/kg, on days 12, 14, and 16). Tumor size was measured with a digital vernier caliper and the volume was calculated using the relation V (mm^3)=(a×b^2)/2 where a is the longer, and b is the shorter diameter. The survival periods also monitored at 2 day intervals.
The tumor growth inhibitory activities were evaluated using B16F10 in xeno-graft tumor-bearing C57BL/6 mice. The tumors rapidly grew in size when the mice were treated with saline and PTX. […] The mean tumor volumes increase rate in the PTX, […], DDMC/PTX4 and DDMC/PTX5 groups were 1.85, 1.84, 1.39 and 1.53, respectively.

[2] = I.P. three times, 10 mg PXL/kg on days 12, 14, 16, B16F10 tumor-bearing C57BL/6 mice

## CC(=O)O[C@H]1C(=O)[C@@]2(C)[C@H]([C@H](OC(=O)c3ccccc3)[C@]3(O)C[C@H](OC(=O)[C@H](O)[C@@H](NC(=O)c4ccccc4)c4ccccc4)C(C)=C1C3(C)C)[C@]1(OC(C)=O)CO[C@@H]1C[C@@H]2O [control 1, paclitaxel]
[1]; Mus musculus, NIH3T3, 50 h, read-out: IC50 (μg/ml), MTT
  IC50: 3 µg/mL (≈ 3.51 µM)

## CC(=O)O[C@H]1C(=O)[C@@]2(C)[C@H]([C@H](OC(=O)c3ccccc3)[C@]3(O)C[C@H](OC(=O)[C@H](O)[C@@H](NC(=O)c4ccccc4)c4ccccc4)C(C)=C1C3(C)C)[C@]1(OC(C)=O)CO[C@@H]1C[C@@H]2O [control 2, paclitaxel]
[1]
  IC50 (μg/ml), MTT: 4.5 µg/mL (≈ 5.27 µM)

## paclitaxel [PTX]
B16F10 melanoma cells; [2]
  mean tumor volumes increase rate: 1.85
  median survival time (50%, MST): 176 h
B16F10 melanoma cells; relative to serine (saline) group = 1.0
  T/C of median survival time: 1.46

— patent publication US9339549B2, “Cationic graft-copolymer for drug delivery system” (priority 2013, dated 2016)
